# According to PubChem BioAssay AID256 (DTP/NCI, 2004):
# Toxic doses and inconclusive results are not listed. Non-standard residues stand in square brackets, D forms with d. Residues, ends and D or L forms follow the SMILES beside them. Ac5c = NC1(C(=O)O)CCCC1
# Tested on: CD2F1 mice, L1210 leukemia ip, survival T/C
# Experiment: NCI In Vivo Anticancer Drug Screen. Data for tumor model L1210 Leukemia (intraperitoneal) in CD2F1 (CDF1) mice
# Settings: higher = longer survival
# How it was run: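 Antitumor effect is scored in animals hosting a serially transplanted tumor. Values compare compound-dosed animals against vehicle-only controls as a simple quotient.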
# [1] = endpoint: mean survival time, dose: 100.0 mg/kg/injection, schedule: Q04DX003 (ip), vehicle: saline with Tween-80
# [2] = endpoint: mean survival time, dose: 200.0 mg/kg/injection, schedule: Q04DX003 (ip), vehicle: saline with Tween-80
# [3] = endpoint: mean survival time, dose: 400.0 mg/kg/injection, schedule: Q04DX003 (ip), vehicle: saline with Tween-80
# [4] = endpoint: mean survival time, dose: 100.0 mg/kg/injection, schedule: Q01DX009 (ip), vehicle: saline with Tween-80
# [5] = endpoint: mean survival time, dose: 200.0 mg/kg/injection, schedule: Q01DX009 (ip), vehicle: saline with Tween-80
# [6] = endpoint: mean survival time, dose: 400.0 mg/kg/injection, schedule: Q01DX009 (ip), vehicle: saline with Tween-80
# [7] = endpoint: mean survival time, dose: 100.0 mg/kg/injection, schedule: Q04DX002 (ip), vehicle: saline with Tween-80
# [8] = endpoint: mean survival time, dose: 200.0 mg/kg/injection, schedule: Q04DX002 (ip), vehicle: saline with Tween-80
# [9] = endpoint: mean survival time, dose: 400.0 mg/kg/injection, schedule: Q04DX002 (ip), vehicle: saline with Tween-80
# [10] = endpoint: mean survival time, dose: 100.0 mg/kg/injection, schedule: Q04DX003 (ip), vehicle: saline
# [11] = endpoint: mean survival time, dose: 200.0 mg/kg/injection, schedule: Q04DX003 (ip), vehicle: saline
smiles,measurement,setting,value
O=C1C=CC(=O)C2CC=CCC12 (stereo not drawn),T/C,"endpoint: mean survival time, dose: 10.0 mg/kg/injection, schedule: Q01DX009 (ip), vehicle: saline with Tween-80",103 % of control
same,T/C,"endpoint: mean survival time, dose: 12.5 mg/kg/injection, schedule: Q04DX003 (ip), vehicle: saline with Tween-80",101 % of control
same,T/C,"endpoint: mean survival time, dose: 20.0 mg/kg/injection, schedule: Q01DX009 (ip), vehicle: saline with Tween-80",107 % of control
same,T/C,"endpoint: mean survival time, dose: 25.0 mg/kg/injection, schedule: Q04DX003 (ip), vehicle: saline with Tween-80",104 % of control
same,T/C,"endpoint: mean survival time, dose: 40.0 mg/kg/injection, schedule: Q01DX009 (ip), vehicle: saline with Tween-80",98 % of control
same,T/C,"endpoint: mean survival time, dose: 50.0 mg/kg/injection, schedule: Q04DX003 (ip), vehicle: saline with Tween-80",98 % of control
same,T/C,[1],100 % of control
same,T/C,[2],93 % of control
same,T/C,[3],100 % of control
Cc1ccc(Cl)cc1N=Cc1ccccc1O,T/C,[4],98 % of control
same,T/C,"endpoint: mean survival time, dose: 132.0 mg/kg/injection, schedule: Q04DX003 (ip), vehicle: saline with Tween-80",110 % of control
same,T/C,[5],94 % of control
same,T/C,[2],102 % of control
same,T/C,"endpoint: mean survival time, dose: 300.0 mg/kg/injection, schedule: Q04DX003 (ip), vehicle: saline with Tween-80",100 % of control
same,T/C,[6],97 % of control
O=[N+]([O-])c1cccc(S(=O)(=O)N2CCCCC2)c1,T/C,"endpoint: mean survival time, dose: 50.0 mg/kg/injection, schedule: Q04DX002 (ip), vehicle: saline with Tween-80",95 % of control
same,T/C,[7],87 % of control
same,T/C,[8],95 % of control
same,T/C,[9],91 % of control
CCNc1nc(NC(C)C)nc(SC)n1,T/C,"endpoint: mean survival time, dose: 50.0 mg/kg/injection, schedule: Q01DX009 (ip), vehicle: saline with Tween-80",104 % of control
same,T/C,[4],101 % of control
same,T/C,[10],97 % of control
same,T/C,[5],117 % of control
same,T/C,[11],101 % of control
CCCCCCCCCCCCCCCC(=O)Nc1ccc2c(c1)[nH]c(=O)c1cc(NC(=O)CCCCCCCCCCCCCCC)ccc12,T/C,[7],98 % of control
same,T/C,[8],111 % of control
same,T/C,[9],102 % of control
NCC(=O)NC1(C(=O)O)CCCC1 (H-Gly-[Ac5c]-OH),T/C,"endpoint: mean survival time, dose: 62.5 mg/kg/injection, schedule: Q01DX001 (ip), vehicle: saline",87 % of control
same,T/C,"endpoint: mean survival time, dose: 62.5 mg/kg/injection, schedule: Q04DX003 (ip), vehicle: saline",107 % of control
same,T/C,"endpoint: mean survival time, dose: 125.0 mg/kg/injection, schedule: Q01DX001 (ip), vehicle: saline",91 % of control
same,T/C,"endpoint: mean survival time, dose: 125.0 mg/kg/injection, schedule: Q04DX003 (ip), vehicle: saline",107 % of control
same,T/C,"endpoint: mean survival time, dose: 250.0 mg/kg/injection, schedule: Q01DX001 (ip), vehicle: saline",112 % of control
same,T/C,"endpoint: mean survival time, dose: 500.0 mg/kg/injection, schedule: Q04DX003 (ip), vehicle: saline",152 % of control
CCCCCCC(C)c1cc(C)c(O)c(CN(C)C)c1 (stereo not drawn),T/C,[10],91 % of control
same,T/C,[11],95 % of control
CCCCN1C(=O)N(c2ccc(OCC)cc2)C2N(CCCC)C1C(C)(C)C2(C)C (stereo not drawn),T/C,[7],107 % of control
same,T/C,"endpoint: median survival time, dose: 7.5 mg/kg/injection, schedule: Q01DX005 (ip), vehicle: saline with Tween-80",107 % of control
same,T/C,"endpoint: median survival time, dose: 15.0 mg/kg/injection, schedule: Q01DX005 (ip), vehicle: saline with Tween-80",110 % of control
same,T/C,"endpoint: median survival time, dose: 30.0 mg/kg/injection, schedule: Q01DX005 (ip), vehicle: saline with Tween-80",101 % of control
same,T/C,"endpoint: median survival time, dose: 60.0 mg/kg/injection, schedule: Q01DX005 (ip), vehicle: saline with Tween-80",101 % of control
same,T/C,"endpoint: median survival time, dose: 120.0 mg/kg/injection, schedule: Q01DX005 (ip), vehicle: saline with Tween-80",113 % of control
CCCCCCCCCCC(=O)CCCCC,T/C,"endpoint: mean survival time, dose: 100.0 mg/kg/injection, schedule: Q01DX009 (ip), vehicle: other",101 % of control
same,T/C,"endpoint: mean survival time, dose: 100.0 mg/kg/injection, schedule: Q04DX003 (ip), vehicle: other",105 % of control
same,T/C,"endpoint: mean survival time, dose: 200.0 mg/kg/injection, schedule: Q01DX009 (ip), vehicle: other",107 % of control
same,T/C,"endpoint: mean survival time, dose: 200.0 mg/kg/injection, schedule: Q04DX003 (ip), vehicle: other",100 % of control
same,T/C,"endpoint: mean survival time, dose: 400.0 mg/kg/injection, schedule: Q01DX009 (ip), vehicle: other",104 % of control
same,T/C,"endpoint: mean survival time, dose: 400.0 mg/kg/injection, schedule: Q04DX003 (ip), vehicle: other",94 % of control
CC[C+](C)[B-][N+](C)(C)C,T/C,"endpoint: mean survival time, dose: 100.0 mg/kg/injection, schedule: Q01DX001 (ip), vehicle: saline",93 % of control
same,T/C,"endpoint: mean survival time, dose: 200.0 mg/kg/injection, schedule: Q01DX001 (ip), vehicle: saline",98 % of control
same,T/C,"endpoint: mean survival time, dose: 400.0 mg/kg/injection, schedule: Q01DX001 (ip), vehicle: saline",100 % of control
CCOC(=O)C(N)CSSCC(N)C(=O)OCC (stereo not drawn),T/C,[10],100 % of control
same,T/C,[11],102 % of control
same,T/C,"endpoint: mean survival time, dose: 400.0 mg/kg/injection, schedule: Q04DX003 (ip), vehicle: saline",97 % of control
Nc1nc(NC(c2ccc(Cl)cc2)c2ccc(Cl)cc2)c2[nH]cnc2n1,T/C,"endpoint: mean survival time, dose: 75.0 mg/kg/injection, schedule: Q01DX001 (ip), vehicle: other",103 % of control
same,T/C,"endpoint: mean survival time, dose: 150.0 mg/kg/injection, schedule: Q01DX001 (ip), vehicle: other",101 % of control
O=c1[nH]c(=O)n(C2OC(CO)C(O)C(O)C2O)cc1F (stereo not drawn),T/C,"endpoint: mean survival time, dose: 12.5 mg/kg/injection, schedule: Q01DX005 (ip), vehicle: water",105 % of control
same,T/C,"endpoint: mean survival time, dose: 25.0 mg/kg/injection, schedule: Q01DX005 (ip), vehicle: water",95 % of control
same,T/C,"endpoint: mean survival time, dose: 50.0 mg/kg/injection, schedule: Q01DX005 (ip), vehicle: water",101 % of control
same,T/C,"endpoint: mean survival time, dose: 100.0 mg/kg/injection, schedule: Q01DX005 (ip), vehicle: water",103 % of control
same,T/C,"endpoint: mean survival time, dose: 200.0 mg/kg/injection, schedule: Q01DX005 (ip), vehicle: water",94 % of control
Cc1ccc(OS(=O)(=O)c2ccc(C)cc2)cc1,T/C,[4],97 % of control
same,T/C,[1],96 % of control
same,T/C,[5],100 % of control
same,T/C,[2],93 % of control
same,T/C,[6],96 % of control
same,T/C,[3],98 % of control
COc1cc2cc(c1Cl)N(C)C(=O)C[C@H](OC(=O)[C@H](C)N(C)C(C)=O)[C@]1(C)O[C@H]1[C@H](C)[C@@H]1C[C@@](O)(NC(=O)O1)[C@H](OC)C=C/C=C(\C)C2,T/C,"endpoint: mean survival time, dose: 0.5 mg/kg/injection, schedule: Q01DX009 (ip), vehicle: saline",104 % of control
same,T/C,"endpoint: mean survival time, dose: 1.0 mg/kg/injection, schedule: Q01DX009 (ip), vehicle: saline",109 % of control
same,T/C,"endpoint: mean survival time, dose: 2.0 mg/kg/injection, schedule: Q01DX009 (ip), vehicle: saline",107 % of control
same,T/C,"endpoint: mean survival time, dose: 32.0 mg/kg/injection, schedule: Q01DX009 (ip), vehicle: saline",91 % of control
same,T/C,"endpoint: mean survival time, dose: 8.0 micrograms/kg/injection, schedule: Q01DX009 (ip), vehicle: saline + alcohol",111 % of control
same,T/C,"endpoint: mean survival time, dose: 12.0 micrograms/kg/injection, schedule: Q01DX009 (ip), vehicle: saline + alcohol",109 % of control
same,T/C,"endpoint: mean survival time, dose: 16.0 micrograms/kg/injection, schedule: Q01DX009 (ip), vehicle: saline + alcohol",112 % of control
same,T/C,"endpoint: mean survival time, dose: 32.0 micrograms/kg/injection, schedule: Q01DX009 (ip), vehicle: saline + alcohol",122 % of control
same,T/C,"endpoint: mean survival time, dose: 200.0 micrograms/kg/injection, schedule: Q01DX009 (ip), vehicle: saline + alcohol",120 % of control
same,T/C,"endpoint: median survival time, dose: 4.0 micrograms/kg/injection, schedule: Q01DX009 (ip), vehicle: clinical formulation",117 % of control
same,T/C,"endpoint: median survival time, dose: 8.0 micrograms/kg/injection, schedule: Q01DX009 (ip), vehicle: clinical formulation",117 % of control
same,T/C,"endpoint: median survival time, dose: 16.0 micrograms/kg/injection, schedule: Q04DX003 (ip), vehicle: clinical formulation",112 % of control
same,T/C,"endpoint: median survival time, dose: 32.0 micrograms/kg/injection, schedule: Q04DX003 (ip), vehicle: clinical formulation",117 % of control
same,T/C,"endpoint: median survival time, dose: 64.0 micrograms/kg/injection, schedule: Q01DX001 (ip), vehicle: clinical formulation",110 % of control
same,T/C,"endpoint: median survival time, dose: 512.0 micrograms/kg/injection, schedule: Q04DX003 (ip), vehicle: clinical formulation",96 % of control
CN1C(=O)C(Cl)=C(Cl)C1=O,T/C,"endpoint: mean survival time, dose: 1.56 mg/kg/injection, schedule: Q04DX003 (ip), vehicle: saline",103 % of control
same,T/C,"endpoint: mean survival time, dose: 3.13 mg/kg/injection, schedule: Q04DX003 (ip), vehicle: saline",101 % of control
same,T/C,"endpoint: mean survival time, dose: 6.25 mg/kg/injection, schedule: Q04DX003 (ip), vehicle: saline",101 % of control
O=C(O)CCC(=O)Nc1cccc(Oc2ccc([N+](=O)[O-])cc2[N+](=O)[O-])c1,T/C,"endpoint: mean survival time, dose: 100.0 mg/kg/injection, schedule: Q01DX009 (ip), vehicle: saline",94 % of control
same,T/C,"endpoint: mean survival time, dose: 200.0 mg/kg/injection, schedule: Q01DX009 (ip), vehicle: saline",94 % of control
same,T/C,"endpoint: mean survival time, dose: 400.0 mg/kg/injection, schedule: Q01DX009 (ip), vehicle: saline",100 % of control
Nc1ccc(-c2c(N)ncc3ccccc23)cc1,T/C,"endpoint: mean survival time, dose: 50.0 mg/kg/injection, schedule: Q04DX003 (ip), vehicle: DMSO",101 % of control
